Source: patent US20170122958A1, “Enzymes Functional Probes” (University of Dundee, priority 2013, published 2017)

Tests used:
[1] = system: Brd2(1) and (2) wild type and leucine to alanine, valine and isoleucine mutants; test: DSF thermal stabilization (FIG. 15); assay type: binding, human; conditions: result in words
Experimental: (§1) DSF assays were performed on a LightCycler®480 from Roche or a Mx3005P Real Time PCR machine from Stratagene. […] SYPRO®Orange from Invitrogen Molecular Probes® was used as a reporter dye to monitor the denaturing process of the proteins. Samples were assayed on a 96-well plate with final protein concentrations of 2 μM for the LightCycler®480 and 6 μM for Mx3005P. Compounds were added at a final concentration of 10 μM for the LightCycler®480 and 30 μM for Mx3005P, while the tetra acetylated histone peptide was added to a final concentration of 100 μM and 300 μM respectively. […] The temperature was raised with a step of 0.6° C. per minute from 37° C. to 95° C. with the LightCycler®480 collecting 39 measurements per ° C., and 1° C. per minute from 25° C. to 95° C. with Mx3005P, collecting fluorescence readings at the end of each interval. Each sample was run in triplicates.
(§2) Collected data was analysed by IGOR Pro 6, a scientific software tool from Wave Metrics, Inc. Analysis was done following the recommendations of Niesen et al.. Fluorescence intensity was plotted as a function of temperature, generating a sigmoidal curve described by a two-state transition from folded to unfolded protein. Curves were fitted by the following sigmoidal equation: […]
(§3) A1 and A2 are the values of minimum and maximum intensities, respectively, x0 is the inflection point and dx is the rate. Fitted curves were differentiated in IGOR Pro 6 and the maximum of the first derivative was identified using the same program. These values correspond to the inflection points of the transition curves and thus to the melting temperatures of the proteins (Tm).

Brd2(2) = molecular target: T1, Brd2(2) (Homo sapiens, UniProt P25440); test: DSF thermal shift; assay type: binding; conditions: wild type
T1 construct: Plasmids of the eight single BET bromodomain constructs Brd2(1), Brd2(2), Brd3(1), Brd3(2); His6 (N); made in house; host or cells: E. coli BL21(DE3)
T1 sequence (P25440 344-453 limits assumed): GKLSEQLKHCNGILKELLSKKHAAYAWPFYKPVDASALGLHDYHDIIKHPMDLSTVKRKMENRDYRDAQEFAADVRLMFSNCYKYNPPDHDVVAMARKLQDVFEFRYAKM

Brd2(1) = molecular target: T2, Brd2(1) (Homo sapiens, UniProt P25440); test: DSF thermal shift; assay type: binding; conditions: wild type
T2 construct: Plasmids of the eight single BET bromodomain constructs Brd2(1), Brd2(2), Brd3(1), Brd3(2); His6 (N); made in house; host or cells: E. coli BL21(DE3)
T2 sequence (P25440 74-180 limits assumed): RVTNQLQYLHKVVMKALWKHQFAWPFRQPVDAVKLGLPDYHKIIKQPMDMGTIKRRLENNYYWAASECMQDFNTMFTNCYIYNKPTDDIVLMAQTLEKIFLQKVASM

Brd2(2)*(Met438-Leu) = molecular target: T3, Brd2(2)*(Met438-Leu) (Homo sapiens, UniProt P25440, M438L); test: DSF thermal shift; assay type: binding; conditions: mutant
T3 construct: Plasmids of the eight single BET bromodomain constructs Brd2(1), Brd2(2), Brd3(1), Brd3(2); His6 (N); made in house; host or cells: E. coli BL21(DE3)
T3 sequence (P25440 344-453 M438L limits assumed): as the sequence (P25440 344-453 limits assumed) above, with M95L counted along it
Experimental: (§4) DSF assays were performed on a LightCycler®480 from Roche or a Mx3005P Real Time PCR machine from Stratagene. Prior to DSF assays, frozen proteins were buffer exchanged using Vivaspin®6 concentrators with a 10 kDa cutoff on a Centrifuge 5430 from Eppendorf at a speed of 6000×g to remove glycerol and to buffer the proteins in 20 mM HEPES pH 7.5 at 25° C. and 100 mM NaCl. SYPRO®Orange from Invitrogen Molecular Probes® was used as a reporter dye to monitor the denaturing process of the proteins. Samples were assayed on a 96-well plate with final protein concentrations of 2 μM for the LightCycler®480 and 6 μM for Mx3005P. Compounds were added at a final concentration of 10 μM for the LightCycler®480 and 30 μM for Mx3005P, while the tetra acetylated histone peptide was added to a final concentration of 100 μM and 300 μM respectively. […] The temperature was raised with a step of 0.6° C. per minute from 37° C. to 95° C. with the LightCycler®480 collecting 39 measurements per ° C., and 1° C. per minute from 25° C. to 95° C. with Mx3005P, collecting fluorescence readings at the end of each interval. Each sample was run in triplicates.
as §2, §3

Brd2(1)*(Met165-Leu) = molecular target: T4, Brd2(1)*(Met165-Leu) (Homo sapiens, UniProt P25440, M165L); test: DSF thermal shift; assay type: binding; conditions: mutant
T4 construct: Plasmids of the eight single BET bromodomain constructs Brd2(1), Brd2(2), Brd3(1), Brd3(2); His6 (N); made in house; host or cells: E. coli BL21(DE3)
T4 sequence (P25440 74-180 M165L limits assumed): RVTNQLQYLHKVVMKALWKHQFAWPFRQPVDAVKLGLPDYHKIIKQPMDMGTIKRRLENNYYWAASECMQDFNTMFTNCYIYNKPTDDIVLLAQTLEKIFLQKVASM
Experimental: as §4, §2, §3

Brd2(2)*(Met438-Ala) = molecular target: T5, Brd2(2)*(Met438-Ala) (Homo sapiens, UniProt P25440, M438A); test: DSF thermal shift; assay type: binding; conditions: mutant
T5 construct: Plasmids of the eight single BET bromodomain constructs Brd2(1), Brd2(2), Brd3(1), Brd3(2); His6 (N); made in house; host or cells: E. coli BL21(DE3)
T5 sequence (P25440 344-453 M438A limits assumed): as the sequence (P25440 344-453 limits assumed) above, with M95A counted along it
Experimental: as §4, §2, §3

Solubility observations = conditions: observation in words
Brd2(1)*(Met165Ala) = Brd2(1)*(Met165Ala) (Homo sapiens, UniProt P25440, M165A); test: DSF thermal shift; assay type: binding; design: Plasmids of the eight single BET bromodomain constructs Brd2(1), Brd2(2), Brd3(1), Brd3(2); His6 (N); made in house; host or cells: E. coli BL21(DE3); conditions: mutant
Brd2(1)*(Met165Ala), sequence (P25440 74-180 M165A limits assumed): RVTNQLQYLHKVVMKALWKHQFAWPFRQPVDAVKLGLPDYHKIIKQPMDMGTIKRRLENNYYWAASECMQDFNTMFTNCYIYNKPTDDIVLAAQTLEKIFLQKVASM
Experimental: as §4, §2, §3

Brd4(2) = molecular target: T6, Brd4(2) (Homo sapiens, UniProt O60885); test: DSF thermal shift; assay type: binding; conditions: wild type
T6 construct: Plasmids of the eight single BET bromodomain constructs Brd2(1), Brd2(2), Brd3(1), Brd3(2), Brd4(1), Brd4(2), Brdt(1) and Brdt(2); His6 (N); made in house; host or cells: E. coli BL21(DE3)

brd4(2)L387A = molecular target: T7, brd4(2)L387A (Homo sapiens, UniProt O60885, L387A); test: DSF thermal shift; assay type: binding; conditions: mutant
T7 construct: Plasmids of the eight single BET bromodomain constructs Brd2(1), Brd2(2), Brd3(1), Brd3(2), Brd4(1), Brd4(2), Brdt(1) and Brdt(2); His6 (N); made in house; host or cells: E. coli BL21(DE3)

Brd4(1) = molecular target: T8, Brd4(1) (Homo sapiens, UniProt O60885); test: DSF thermal shift; assay type: binding; conditions: wild type
T8 construct: Plasmids of the eight single BET bromodomain constructs Brd2(1), Brd2(2), Brd3(1), Brd3(2), Brd4(1), Brd4(2), Brdt(1) and Brdt(2); His6 (N); made in house; host or cells: E. coli BL21(DE3)

brd4(1)L094A = molecular target: T9, brd4(1)L094A (Homo sapiens, UniProt O60885, L94A); test: DSF thermal shift; assay type: binding; conditions: mutant
T9 construct: Plasmids of the eight single BET bromodomain constructs Brd2(1), Brd2(2), Brd3(1), Brd3(2), Brd4(1), Brd4(2), Brdt(1) and Brdt(2); His6 (N); made in house; host or cells: E. coli BL21(DE3)

Brd2(2)*(Leu383-Ala) = Brd2(2)*(Leu383-Ala) (Homo sapiens, UniProt P25440, L383A); test: DSF thermal shift; assay type: binding; design: Plasmids of the eight single BET bromodomain constructs Brd2(1), Brd2(2), Brd3(1), Brd3(2); His6 (N); made in house; host or cells: E. coli BL21(DE3); conditions: mutant
Brd2(2)*(Leu383-Ala), sequence (P25440 344-453 L383A limits assumed): as the sequence (P25440 344-453 limits assumed) above, with L40A counted along it
Experimental: as §1, §2, §3

Brd2(1)*(Leu110-Ala) = Brd2(1)*(Leu110-Ala) (Homo sapiens, UniProt P25440, L110A); test: DSF thermal shift; assay type: binding; design: Plasmids of the eight single BET bromodomain constructs Brd2(1), Brd2(2), Brd3(1), Brd3(2); His6 (N); made in house; host or cells: E. coli BL21(DE3); conditions: mutant
Brd2(1)*(Leu110-Ala), sequence (P25440 74-180 L110A limits assumed): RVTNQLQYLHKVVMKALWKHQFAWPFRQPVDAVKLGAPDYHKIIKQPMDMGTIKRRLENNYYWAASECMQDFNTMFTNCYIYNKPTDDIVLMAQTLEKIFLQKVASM
Experimental: as §1, §2, §3

[2] = system: WT and mutants (Leu to Ala, Leu to Val and Leu to Ile) of Brd2(2); test: ITC of compound into protein (FIG. 16); assay type: binding, human; conditions: 250 μM compound into 25 μM protein; result in words
Experimental: To investigate the utility of the new compounds further, the inventors performed isothermal titration experiments by titrating 250 μM compound solutions (AL, ME-Am1, ET-Am1, ME-Am2, ET-Am2, 9-ME, 9-ET, 9-ME-Am1 and 9-ET-Am1) 25 μM protein solutions (WT and mutants (Leu to Ala, Leu to Val and Leu to Ile) of Brd2(2)).
ITC experiments were carried out on a ITC200 instrument from MicroCal™ Experiments were conducted at 3 different temperatures 15° C., 25° C. and 30° C., while stirring at 1000 rpm. Buffers of proteins, peptide and compounds were matched to 20 mM HEPES pH 7.5 at 25° C. and 100 mM NaCl. Frozen protein was buffer exchanged as described for the DSF experiments. Each titration comprised 1 initial injection of 0.4 μl lasting 0.8 s, followed by 19 injections of 2 μl lasting 4 s each at 2 min intervals. The initial injection was discarded during data analysis. Standard and reverse titrations were conducted depending on the binding partners.
All the data was fitted to a single binding site model using the Microcal LLC ITC200 Origin software provided by the manufacturer to yield enthalpies of binding (ΔH) and binding constants (Kas). Further thermodynamic parameters were calculated from these values (changes in entropy ΔS, changes in free energy AG and dissociation constants (Kds)).

Compound | Thermal stabilization of Brd2 mutants versus wild types (FIG. 15) [1] | ΔTm Brd2(2) (Brd2(2)) | ΔTm Brd2(1) (Brd2(1)) | ΔTm Brd2(2)*(Met165-Leu) (Brd2(2)*(Met438-Leu)) | ΔTm Brd2(1)*(Met165-Leu) (Brd2(1)*(Met165-Leu)) | ΔTm Brd2(2)*(Met165-Ala) (Brd2(2)*(Met438-Ala)) | Solubility (Solubility observations) | ΔTm Brd2(1)*(Met165-Ala) (Brd2(1)*(Met165Ala)) | ΔTm Brd4(2) (Brd4(2)) | ΔTm Brd4(2)* (L387A) (brd4(2)L387A) | ΔTm Brd4(1) (Brd4(1)) | ΔTm Brd4(1)* (L094A) (brd4(1)L094A) | ΔTm Brd2(2)*(Leu383-Ala) (Brd2(2)*(Leu383-Ala)) | ΔTm Brd2(1)*(Leu110-Ala) (Brd2(1)*(Leu110-Ala)) | Selectivity for Brd2(2) mutants relative to wild type by ITC (FIG. 16) [2]
COC(=O)CC1N=C(c2ccc(Cl)cc2)c2cc(OC)ccc2-n2c(C)nnc21 (racemic) [I-BET-OMe, (+−)-methyl 2-(6-(4-chlorophenyl)-8-methoxy-1-methyl-4H-benzo[f][1,2,4]triazolo[4,3-a][1,4]diazepin-4-yl)acetate, reference compound] | no selective stabilization of the mutant proteins | – | – | – | – | – | – | – | – | – | – | – | – | – | –
Cc1cccc(S(=O)(=O)Nc2ccc3c(c2)CN(C)C(=O)N3)c1 [Compound 53, 3-methyl-N-(3-methyl-2-oxo-1,2,3,4-tetrahydroquinazolin-6-yl)benzenesulfonamide] | – | 0.7 ± 0.1 K | 0.0 ± 0.3 K | 0.0 ± 0.0 K | 0.0 ± 0.1 K | 0.0 ± 0.1 K | low solubility | 0.0 ± 0.1 K | – | – | – | – | – | – | –
COC(=O)[C@@H](CC1CC1)[C@@H]1N=C(c2ccc(Cl)cc2)c2cc(OC)ccc2-n2c(C)nnc21 (racemic) [Compound 16, (+−)-methyl (S)-2-((S)-6-(4-chlorophenyl)-8-methoxy-1-methyl-4H-benzo[f][1,2,4]triazolo[4,3-a][1,4]diazepin-4-yl)-3-cyclopropylpropanoate] | – | 1.1 ± 0.3 K | −0.5 ± 0.6 K | – | – | – | – | – | 0.3 ± 0.9 K | 0.1 ± 0.1 K | −0.4 ± 0.5 K | 1.3 ± 0.2 K | 2.3 ± 0.3 K | 1.6 ± 1.0 K | –
COc1ccc(-c2ccc(S(=O)(=O)Nc3ccc4c(c3)CN(C)C(=O)N4)cc2)cc1 [Compound 50, 4′-methoxy-N-(3-methyl-2-oxo-1,2,3,4-tetrahydroquinazolin-6-yl)-[1,1′-biphenyl]-4-sulfonamide] | – | 0.7 ± 0.2 K | – | 3.8 ± 0.2 K | 1.7 ± 0.1 K | 4.1 ± 0.1 K | solubility of the compound decreased | 5.3 ± 0.3 K | – | – | – | – | – | – | –
CCNC(=O)[C@H](CC)[C@@H]1N=C(c2ccc(Cl)cc2)c2ccc(OC)cc2-n2c(C)nnc21 (racemic) [Compound 9-ET-Am1, (+−) (R)-2-((S)-6-(4-chlorophenyl)-9-methoxy-1-methyl-4H-benzo[f][1,2,4]triazolo[4,3-a][1,4]diazepin-4-yl)-N-ethylbutanamide] | smaller shifts | – | – | – | – | – | – | – | – | – | – | – | – | – | higher selectivity for the mutants relative to wild types
CCC[C@H](C(=O)OC)[C@@H]1N=C(c2ccc(Cl)cc2)c2cc(OC)ccc2-n2c(C)nnc21 (racemic) [Compound 15, (+−)-Methyl (S)-2-((S)-6-(4-chlorophenyl)-8-methoxy-1-methyl-4H-benzo[f][1,2,4]triazolo[4,3-a][1,4]diazepin-4-yl)pentanoate] | – | 0.5 ± 0.2 K | 0.1 ± 0.3 K | – | – | – | – | – | −0.5 ± 1.1 K | 1.6 ± 0.3 K | 0.6 ± 1.1 K | 2.4 ± 1.3 K | 1.4 ± 0.2 K | 0.9 ± 0.6 K | –
